Assay results as given in patent US20200087340A1, “LIF/LIFR ANTAGONIST IN ONCOLOGY AND NONMALIGNANT DISEASES” (Evestra, Inc., priority 2018, published 2020).

Assays:
CCRF-CEM = experiment: NCI-60 screening, Leukemia; assay type: cell-based, human
K-562 = experiment: NCI-60 screening, Leukemia; assay type: cell-based, human
HOP-92 = experiment: NCI-60 screening, Non-Small Cell Lung Cancer; assay type: cell-based, human
NCI-H23 = experiment: NCI-60 screening, Non-Small Cell Lung Cancer; assay type: cell-based, human
NCI-H332M = experiment: NCI-60 screening, Non-Small Cell Lung Cancer; assay type: cell-based, human
NCI-H460 = experiment: NCI-60 screening, Non-Small Cell Lung Cancer; assay type: cell-based, human
COLO 205 = experiment: NCI-60 screening, Colon Cancer; assay type: cell-based, human
HCC-2998 = experiment: NCI-60 screening, Colon Cancer; assay type: cell-based, human
HCT-116 = experiment: NCI-60 screening, Colon Cancer; assay type: cell-based, human
HT29 = experiment: NCI-60 screening, Colon Cancer; assay type: cell-based, human
KM12 = experiment: NCI-60 screening, Colon Cancer; assay type: cell-based, human
SF-268 = experiment: NCI-60 screening, CNS Cancer; assay type: cell-based, human
SF-295 = experiment: NCI-60 screening, CNS Cancer; assay type: cell-based, human
SF-539 = experiment: NCI-60 screening, CNS Cancer; assay type: cell-based, human
U251 = experiment: NCI-60 screening, CNS Cancer; assay type: cell-based, human
LOX IMVI = experiment: NCI-60 screening, Melanoma; assay type: cell-based, human
MALME-3M = experiment: NCI-60 screening, Melanoma; assay type: cell-based, human
M14 = experiment: NCI-60 screening, Melanoma; assay type: cell-based, human
SK-MEL-2 = experiment: NCI-60 screening, Melanoma; assay type: cell-based, human
SK-MEL-28 = experiment: NCI-60 screening, Melanoma; assay type: cell-based, human
SK-MEL-5 = experiment: NCI-60 screening, Melanoma; assay type: cell-based, human
UACC-257 = experiment: NCI-60 screening, Melanoma; assay type: cell-based, human
OVCAR-5 = experiment: NCI-60 screening, Ovarian Cancer; assay type: cell-based, human
NCI/ADR-RES = experiment: NCI-60 screening, Ovarian Cancer; assay type: cell-based, human
PC-3 = experiment: NCI-60 screening, Prostate Cancer; assay type: cell-based, human
DU-145 = experiment: NCI-60 screening, Prostate Cancer; assay type: cell-based, human
786-0 = experiment: NCI-60 screening, Renal Cancer; assay type: cell-based, human
ACHN = experiment: NCI-60 screening, Renal Cancer; assay type: cell-based, human
CAKI-1 = experiment: NCI-60 screening, Renal Cancer; assay type: cell-based, human
RXF 393 = experiment: NCI-60 screening, Renal Cancer; assay type: cell-based, human
TK-10 = experiment: NCI-60 screening, Renal Cancer; assay type: cell-based, human
MCF7 = experiment: NCI-60 screening, Breast Cancer; assay type: cell-based, human
MDA-MB-231 ATCC = experiment: NCI-60 screening, Breast Cancer; assay type: cell-based, human
T47D cells = experiment: Soft agar colony formation assay; assay type: cell-based, human; settings: 100 nM concentration
Procedure: Colonies of cancer cells formed in soft agar in the presence and absence of the testing compounds is a standard assay to interpret in-vitro tumorigenic potential in the basal layer. Agar was prepared by mixing 1% DNA grade agar melted and cooled to 40° C. with an equal volume of (2×) Dulbecco's Modified Eagle's Medium (DMEM) to obtain 0.5% agar that was dispersed in a 6-well plate and allowed to solidify. A total of 0.6% agar was prepared in RPMI medium and mixed together with T47D cells (0.5×10^6 cells/mL) and immediately plated on the basal layer in the presence or absence of testing compounds. The cultures were incubated at 37° C. in a CO2 incubator for 2 weeks, and colonies were stained with 0.005% crystal violet and observed under a light microscope.

[1] = tested on: human endometrial stromal cells (HESC); experiment: Decidualization assay, phalloidin staining of actin cytoskeleton; assay type: cell-based
Procedure: Decidualization studies: The above compounds were investigated originally for the treatment of endometriosis. The compounds were tested in a decidualization assay using human endometrial stromal fibroblast (HESC) cells. In preparation for the possibility of embryonic attachment, the stromal cells in the endometrium undergo extensive waves of proliferation, remodeling, and terminal differentiation that transforms the endometrium into an endocrine gland, called decidua. This transformation is called decidualization and it is under the control by ovarian hormones.
The level of apoptosis increases from the proliferative phase through menstrual cycle and peaks at menses. […] However if the cells are subjected to conditions that induce decidualization, stromal cells will begin to differentiate instead of undergoing apoptosis.
Rationale of this assay is described above in mechanism of action studies section. Briefly, human stromal endometrial cells were plated in the presence and absence of progesterone and allow undergoing decidualization. The cells treated with test compounds of different concentrations and stained for actin cytocketal morphology using phalloidin staining and monitored under fluorescent microscope.

[2] = tested on: Patient derived tumor (melanoma); experiment: Immunohistochemistry analysis of treated patient derived tumor; assay type: cell-based, human; settings: 10 nM and 1 uM for 5 days
Procedure: Patient derived tumor (melanoma) was treated with the compounds at 10 nM and 1 uM for 5 days in RPMI medium and harvested on day 6 using established protocol and immunohistochemistry was performed for different antibodies including p53, LIF, MDM2, pSTAT3, Ki67.

MCF-7 cells = experiment: P53 / MDM2 levels in MCF-7 cells; assay type: cell-based, human

## C#CC(F)(F)[C@]1(O)CCC2C3CCC4=CC(=O)CCC4=C3C(c3ccc(C4CC4)cc3)C[C@@]21C (stereo partly drawn) [EC330, 17α-(1,1-difluoro-2-propyn-1-yl)-17β-hydroxy-11β-[4-p-(cyclopropyl)phenyl]estra-4,9-dien-3-one]
CCRF-CEM
  TGI (log10TGI): <−8.00
K-562
  TGI (log10TGI): >−4.00
HOP-92
  TGI (log10TGI): <−8.00
NCI-H23
  TGI (log10TGI): <−8.00
NCI-H332M
  TGI (log10TGI): >−4.00
NCI-H460
  TGI (log10TGI): −4.80
COLO 205
  TGI (log10TGI): −5.53
HCC-2998
  TGI (log10TGI): −4.37
HCT-116
  TGI (log10TGI): −4.55
HT29
  TGI (log10TGI): −6.72
KM12
  TGI (log10TGI): −5.91
SF-268
  TGI (log10TGI): −6.43
SF-295
  TGI (log10TGI): <−8.00
SF-539
  TGI (log10TGI): −7.77
U251
  TGI (log10TGI): −5.78
LOX IMVI
  TGI (log10TGI): <−8.00
MALME-3M
  TGI (log10TGI): <−8.00
M14
  TGI (log10TGI): −4.45
SK-MEL-2
  TGI (log10TGI): −5.19
SK-MEL-28
  TGI (log10TGI): −5.43
SK-MEL-5
  TGI (log10TGI): −4.79
UACC-257
  TGI (log10TGI): >−4.00
OVCAR-5
  TGI (log10TGI): −5.25
NCI/ADR-RES
  TGI (log10TGI): −5.41
PC-3
  TGI (log10TGI): −5.53
DU-145
  TGI (log10TGI): −4.75
786-0
  TGI (log10TGI): <−8.00
ACHN
  TGI (log10TGI): −5.09
CAKI-1
  TGI (log10TGI): −6.41
RXF 393
  TGI (log10TGI): −5.09
TK-10
  TGI (log10TGI): −4.91
MCF7
  TGI (log10TGI): −4.96
MDA-MB-231 ATCC
  TGI (log10TGI): −5.46
T47D cells
  colonies formed: complete inhibition or no colonies were formed
[1]
  actin cytoskeletal disruption (phalloidin staining): cytoskeletal disruption
[2]
  apoptosis, p53, MDM2, LIF mediated STAT3 phosphorylation (immunohistochemistry): induce apoptosis and restore p53 by inhibiting MDM2 and LIF mediated STAT3 phosphorylation
MCF-7 cells
  P53 levels / MDM2: restore P53 levels by inhibiting MDM2
